Columns and labels:
Test in all cases: relative viability (nuclei count vs DMSO), 5 days (fraction); higher = more cells survive
MK-8033 + Pictilisib = compound: Cn1cc(-c2cnc3ccc4ccc(CS(=O)(=O)NCc5ccccn5)cc4c(=O)c3c2)cn1 [MK-8033] + CS(=O)(=O)N1CCN(Cc2cc3nc(-c4cccc5[nH]ncc45)nc(N4CCOCC4)c3s2)CC1 [Pictilisib] (partner 1 µM)
Outline: (§1)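 After 5 days of treatment, lung cancer cells in 1536-well plates were fixed and stained in a single step (final 0.05% Triton X-100, 1% formaldehyde, 1 ug/ml Hoechst) and their nuclei counted on 4× images. Treatment had been applied by pin tool the day after seeding as one drug alone or as a fixed anchor-drug dose with five library-drug doses (not always all listed) in √10 steps. Relative viability is the nuclei count of treated wells divided by that of vehicle wells, and values are medians of duplicate plates.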

RU-SKI 43 + Pictilisib = compound: CC[C@@H](C)CNCC(=O)N1CCC2=C([C@@H]1COC3=CC=CC(=C3)C)C=CS2 [RU-SKI 43] + CS(=O)(=O)N1CCN(Cc2cc3nc(-c4cccc5[nH]ncc45)nc(N4CCOCC4)c3s2)CC1 [Pictilisib] (partner 1 µM)
Outline: as §1

MK-8033 + Decitabine = compound: Cn1cc(-c2cnc3ccc4ccc(CS(=O)(=O)NCc5ccccn5)cc4c(=O)c3c2)cn1 [MK-8033] + Nc1ncn([C@H]2C[C@H](O)[C@@H](CO)O2)c(=O)n1 [Decitabine] (partner 2 µM)
Outline: as §1

RU-SKI 43 + Lapatinib = compound: CC[C@@H](C)CNCC(=O)N1CCC2=C([C@@H]1COC3=CC=CC(=C3)C)C=CS2 [RU-SKI 43] + CS(=O)(=O)CCNCc1ccc(-c2ccc3ncnc(Nc4ccc(OCc5cccc(F)c5)c(Cl)c4)c3c2)o1 [Lapatinib] (partner 2 µM)
Outline: as §1

Row | Cell Line | relative viability (MK-8033 + Pictilisib; first compound 0.02 µM) | relative viability (MK-8033 + Pictilisib; first compound 0.06325 µM) | relative viability (MK-8033 + Pictilisib; first compound 0.2 µM) | relative viability (MK-8033 + Pictilisib; first compound 0.6325 µM) | relative viability (MK-8033 + Pictilisib; first compound 2 µM) | relative viability (RU-SKI 43 + Pictilisib; first compound 0.1 µM) | relative viability (RU-SKI 43 + Pictilisib; first compound 0.3162 µM) | relative viability (RU-SKI 43 + Pictilisib; first compound 1 µM) | relative viability (RU-SKI 43 + Pictilisib; first compound 3.162 µM) | relative viability (RU-SKI 43 + Pictilisib; first compound 10 µM) | relative viability (MK-8033 + Decitabine; first compound 0.02 µM) | relative viability (MK-8033 + Decitabine; first compound 0.06325 µM) | relative viability (MK-8033 + Decitabine; first compound 0.2 µM) | relative viability (MK-8033 + Decitabine; first compound 0.6325 µM) | relative viability (MK-8033 + Decitabine; first compound 2 µM) | relative viability (RU-SKI 43 + Lapatinib; first compound 0.1 µM) | relative viability (RU-SKI 43 + Lapatinib; first compound 0.3162 µM) | relative viability (RU-SKI 43 + Lapatinib; first compound 1 µM) | relative viability (RU-SKI 43 + Lapatinib; first compound 3.162 µM) | relative viability (RU-SKI 43 + Lapatinib; first compound 10 µM)
1 | NCI-H2347 | 0.685 | 0.438 | 0.597 | 0.771 | 0.603 | 0.589 | 1.18 | 0.595 | 0.72 | 0.574 | 0.548 | 0.608 | 0.571 | 0.54 | 0.685 | 0.951 | 0.829 | 1.08 | 1.04 | 0.726
2 | NCI-H2405 | 0.502 | 0.445 | 0.404 | 0.434 | 0.593 | 0.393 | 0.34 | 0.436 | 0.472 | 0.333 | 0.776 | 0.703 | 0.67 | 0.701 | 0.746 | 1.01 | 0.964 | 1.03 | 1.04 | 0.956
3 | NCI-H3122 | 0.676 | 0.563 | 0.602 | 0.66 | 0.628 | 0.644 | 0.543 | 0.641 | 0.559 | 0.578 | 0.441 | 0.478 | 0.406 | 0.508 | 0.469 | 1.06 | 1.03 | 1.03 | 1.09 | 0.979
4 | PC-3 [JPC-3] | 0.666 |  | 0.655 | 0.56 | 0.762 | 0.768 | 0.69 | 0.805 | 0.816 | 0.683 | 0.803 |  | 0.748 | 0.845 | 0.804 | 0.461 | 0.344 | 0.454 | 0.47 | 0.459
5 | PC-14 | 0.652 | 0.514 | 0.738 | 0.545 | 0.623 | 0.644 | 0.716 | 0.756 | 0.646 | 0.462 | 0.214 | 0.176 | 0.225 | 0.212 | 0.183 | 0.362 | 0.362 | 0.414 | 0.335 | 0.239
6 | RERF-LC-KJ | 0.508 | 0.417 | 0.519 | 0.501 | 0.533 | 0.535 | 0.529 | 0.61 | 0.548 | 0.476 | 0.501 | 0.712 | 0.682 | 0.756 | 0.686 | 0.872 | 0.892 | 0.853 | 0.959 | 0.825
7 | SK-LU-1 | 0.658 | 0.499 | 0.449 | 0.54 | 0.622 | 0.556 | 0.578 | 0.634 | 0.678 | 0.554 | 0.545 | 0.539 | 0.559 | 0.638 | 0.657 | 0.849 | 1.02 | 0.931 | 0.834 | 0.929
8 | SK-MES-1 | 0.334 | 0.301 | 0.328 | 0.405 | 0.349 | 0.34 | 0.332 | 0.366 | 0.444 | 0.336 | 0.355 | 0.362 | 0.4 | 0.407 | 0.499 | 0.471 | 0.49 | 0.519 | 0.51 | 0.422
9 | SW 1573 | 0.55 | 0.414 | 0.462 | 0.463 | 0.42 | 0.519 | 0.544 | 0.581 | 0.648 | 0.455 | 0.528 | 0.467 | 0.524 | 0.502 | 0.474 | 1.27 | 1.11 | 1.07 | 1.11 | 1.16

Reference: the supplement of paper PMC10307832
